Assay results from patent US9227956B2 (Pfizer Inc., priority 2013, dated 2016).

How the values were obtained:
human PCSK9 [1] = experiment: Cell Free PCSK9 Assay (PCSK9-luciferase RNA translated in HeLa cell lysate); format: biochemical; details: 30° C. for 45 minutes, luciferase readout, top concentration 100 μM
Method: In order to eliminate the permeability barrier inherent to the WT7 and SCHH cell-based assays a cell-free system was also established to access compound activity. […] The construct was then in-vitro transcribed using the MEGAscript T7 Kit (Life Technologies) and RNA subsequently purified incorporating the MEGAclear Kit (Life Technologies) according to manufacturer's protocols. […] Growth was in a 50 L wavebag at a rocker speed of 25 rpm and angle 6.1 with 5% CO2 and 0.2 LPM flow rate with cells harvested at a density of 2-2.5e6/ml. Lysates additionally contained 1 tablet of Roche cOmplete-EDTA protease inhibitors per 50 ml with tris(2-carboxyethyl)phosphine (Biovectra) substituted for dithiothreitol, and were clarified by an additional final centrifugation at 10,000 rpm in a Sorvall SS34 rotor at 4° C. for 10 minutes. Compound screening was performed in 384-well plates in an eleven point, 0.5 log dilution format at a top test compound concentration of 100 μM in a final volume of 0.5% DMSO. […] Upon assay completion 1 μL from each reaction solution was removed and transferred to a second 384-well Optiplate (Perkin Elmer) containing 24 μL of SteadyGlo (Promega) and signal intensity was measured on the Envision (Perkin Elmer) using the enhanced luminescence protocol. […] The test compound data were converted into percent effect, using the ZPE and HPE controls as 0% and 100% activity, respectively, applying Equation 1 above. IC50 was then calculated and reported as the midpoint in the percent effect curve in molar units and the values are reported under the Cell Free PCSK9 IC50 (μM) column header within Table 1 Biological Data.

PCSK9 = PCSK9 lowering in sandwich culture human hepatocytes (SCHH); format: cell-based; details: maximum response versus vehicle
Method: Test compound in-vitro pharmacokinetic and pharmacodynamic relationships were measured in sandwich culture primary cryopreserved human hepatocytes. Within these studies SCHH cells (BD Biosciences IVT) were thawed at 37° C. then placed on ice, after which the cells were added to pre-warmed (37° C.) In VitroGRO-HT media and centrifuged at 50×g for 3 min. The cell pellet was re-suspended to 0.8×10^6 cells/mL in InVitroGRO-CP plating medium and cell viability determined by trypan blue exclusion. On day 1, hepatocyte suspensions were plated in BioCoat 96-well plates at a density of 80000 cells/well in a volume of 0.1 mL/well. After 18 to 24 hours of incubation at 37° C. in 5% CO2, cells were overlaid with ice-cold 0.25 mg/mL BD Matrigel Matrix Phenol Red-Free in incubation medium at 0.1 mL/well. Cultures were maintained at 37° C. in 5% CO2 in InVitroGRO-HI (FBS-free media), which was replaced every 24 hours and time course treatments were initiated on day 5. Prior to compound treatment cell plates were washed 3 times with 0.1 mL/well InVitroGRO-HI and 0.09 mL of media was added back in preparation for the compound additions. 1 uL of either DMSO or compound DMSO stocks at 30 mM, 10 mM, 3 mM and 1 mM were stamped into 96 well V bottom polypropylene plates. 0.099 mL of media was added to the compound plate and mixed thoroughly before the addition of 0.010 mL from the interim compound plate to the cell plate. […] At the indicated time, 0.08 mL of media was removed from the cell plates and frozen for subsequent analysis of secreted PCSK9 by AlphaLISA and for determination of drug levels in the media by liquid chromatography-tandem mass spectrometry (LC-MS/MS). The remaining media was then aspirated and the cell layers were washed 3× with ice cold Hanks Balanced Salt Solution (HBSS) under shaking conditions to remove the matrigel overlay and plates were then stored at −20° C. for subsequent determination of drug levels in the cells by LC-MS/MS. AlphaLISA determination of PCSK9 protein levels within the conditioned media was performed ultilizing the identical reagents and detection protocols described above for the WT7 cells.

human PCSK9 [2] = experiment: PCSK9 AlphaLISA assay, PCSK9 lowering in WT7 cells; details: WT7 cells (Huh7 stably over-expressing human PCSK9); secreted PCSK9 by AlphaLISA; overnight incubation (16-24 h); top concentration 20 μM; read-out: Cell Based PCSK9 IC50
Source text: An in-vitro AlphaLISA assay (Perkin Elmer) was developed in order to quantitate the level of PCSK9 secreted into the cell culture media following compound treatment. To detect and measure PCSK9 protein an in-house generated anti-PCSK9 antibody was coupled to AlphaLISA acceptor beads by an external vendor (PerkinElmer) and a second internally developed anti-PCSK9 antibody with an epiptope distinct from that of the acceptor beads was biotinylated in house. Streptavidin coated-donor beads (Perkin Elmer) are also included in the assay mixture which then binds the biotinylated anti-PCSK9 antibody and in the presence of PCSK9 this donor complex and acceptor beads are brought into close proximity. […] The ability of compound to modulate PCSK9 protein levels in conditioned media by AlphaLISA was assessed in the human hepatocellular carcinoma cell line Huh7, stably over-expressing human PCSK9. […] Following plasmid transfection the stable WT7 clone was identified and maintained under Zeocin selection. Compound screening was performed in 384-well plates where WT7 cells were plated at a density of 7500 cells per well in 20 μL of tissue culture media containing compound in an eleven point, 0.5 log dilution format at a high treatment concentration of 20 μM in a final volume of 0.5% DMSO. In additional to these test compound conditions each screening plate also included wells that contained 20 μM puromycin as a positive assay control defined as high percent effect, HPE, as well as wells containing media in 0.5% DMSO as a negative treatment control defined as zero percent effect, ZPE. After overnight compound incubation (16-24 h) the tissue culture media was collected and an aliquot from each sample was transferred to individual wells of a 384-well white Optiplate (Perkin Elmer). The coupled antibodies and donor beads were added to the assay plates in a buffer composed of 30 mM Tris pH 7.4, 0.02% Tween-20 and 0.02% Casein. Anti-PCSK9 acceptor beads (final concentration of 10 μg/mL) and anti-PCSK9 biotinylated antibody (final concentration of 3 nM) were added and incubated for 30 minutes at room temperature followed by the addition of the streptavidin donor beads (final concentration 40 μg/mL) for an additional 60 minutes. Additionally a standard curve was generated where AlphaLISA reagents were incubated in wells spiked with recombinant human PCSK9 diluted in tissue culture media from 5000 ng/mL to 0.6 ng/mL. […] The test compound data were converted into percent effect, using the ZPE and HPE controls as 0% and 100% activity, respectively. The equation used for converting each well reading into percent effect was:
[formula] IC50 was then calculated and reported as the midpoint in the percent effect curve in molar units and the values are reported under the Cell Based PCSK9 IC50 (μM) column header within Table 1 Biological Data. Additionally, to monitor the selectivity of compound response for PCSK9 the level of a second secreted protein, Transferrin, was measured from the same conditioned media treated with test compound by AlphaLISA. […] To detect and quantify effects on Transferrin 0.01 mL of the culture media was transferred to a 384-well white Optiplate and 0.01 mL of media was added to bring the volume to 0.02 ml. Anti-Transferrin acceptor beads were added to a final concentration of 10 μg/mL, biotinylated anti-Transferrin at 3 nM and streptavidin donor beads at 40 μg/mL. Percent effect and IC50 for Transferrin was computed in a similar manner as that described for PCSK9.

SMILES | IC50 (human PCSK9 [1]) [µM] | Sandwich Culture Hepatocyte (SCHH) PCSK9 Lowering (PCSK9; at 6 h at 30 uM) [% at 6 h at 30 uM] | IC50 (human PCSK9 [2]) [µM] | Sandwich Culture Hepatocyte (SCHH) PCSK9 Lowering (PCSK9; at 8 h at 30 μM) [% at 8 h at 30 μM]
CCOC(=O)OC(CC)n1nnc(-c2c(-c3ccc(C(=O)N(c4ncccc4C)[C@@H]4CCCNC4)cc3)cnn2C)n1 (single isomer, unassigned) [Example 32] | 7.26 | 0 | > 20 | –
CCOC(=O)OC(CC)n1nnc(-c2c(-c3ccc(C(=O)N(c4ncccc4C)[C@@H]4CCCNC4)cc3)cnn2C)n1 (single isomer, unassigned) [Example 33] | 23.7 | 32 | > 20 | –
CCOC(=O)OC(C(C)C)n1nnc(-c2c(-c3ccc(C(=O)N(c4ncccc4C)[C@@H]4CCCNC4)cc3)cnn2C)n1 (single isomer, unassigned) [Example 34] | 5.22 | 20 | > 20 | –
CCOC(=O)OC(C(C)C)n1nnc(-c2c(-c3ccc(C(=O)N(c4ncccc4C)[C@@H]4CCCNC4)cc3)cnn2C)n1 (single isomer, unassigned) [Example 35] | 6.2 | 28 | > 20 | –
CCOC(=O)OC(n1nnc(-c2c(-c3ccc(C(=O)N(c4ncccc4C)[C@@H]4CCCNC4)cc3)cnn2C)n1)C(C)(C)C (single isomer, unassigned) [Example 36] | 5.43 | 27 | > 20 | –
CCOC(=O)OC(n1nnc(-c2c(-c3ccc(C(=O)N(c4ncccc4C)[C@@H]4CCCNC4)cc3)cnn2C)n1)C(C)(C)C (single isomer, unassigned) [Example 37] | 22.9 | 25 | > 20 | –
Cc1cccnc1N(C(=O)c1ccc(-c2cnn(C)c2-c2nnn(C(C)OC(=O)OC(C)C)n2)cc1)[C@@H]1CCCNC1 (single isomer, unassigned) [Example 38] | 2.19 | 3 | – | –
Cc1cccnc1N(C(=O)c1ccc(-c2cnn(C)c2-c2nnn(C(C)OC(=O)OC(C)C)n2)cc1)[C@@H]1CCCNC1 (single isomer, unassigned) [Example 39] | 0.592 | 0 | – | –
CCC(OC(=O)OC(C)C)n1nnc(-c2c(-c3ccc(C(=O)N(c4ncccc4C)[C@@H]4CCCNC4)cc3)cnn2C)n1 (single isomer, unassigned) [Example 40] | 18.2 | 26 | > 20 | –
CCC(OC(=O)OC(C)C)n1nnc(-c2c(-c3ccc(C(=O)N(c4ncccc4C)[C@@H]4CCCNC4)cc3)cnn2C)n1 (single isomer, unassigned) [Example 41] | 15.4 | 35 | > 19.4 | –
Cc1cccnc1N(C(=O)c1ccc(-c2cnn(C)c2-c2nnn(C(OC(=O)OC(C)C)C(C)C)n2)cc1)[C@@H]1CCCNC1 (single isomer, unassigned) [Example 42] | 7.38 | 19 | > 20 | –
Cc1cccnc1N(C(=O)c1ccc(-c2cnn(C)c2-c2nnn(C(OC(=O)OC(C)C)C(C)C)n2)cc1)[C@@H]1CCCNC1 (single isomer, unassigned) [Example 43] | 31.9 | 21 | > 20 | –
CCC(=O)OC(C)n1nnc(-c2c(-c3ccc(C(=O)N(c4ncccc4C)[C@@H]4CCCNC4)cc3)cnn2C)n1 (single isomer, unassigned) [Example 44] | 4.39 | 12 | > 20 | –
CCOC(=O)c1c(-c2ccc(C(=O)N(c3ncccc3Cl)[C@@H]3CCCNC3)cc2)cnn1C [Example 6, ethyl 4-(4-{(3-chloropyridin-2-yl)[(3R)-piperidin-3-yl]carbamoyl}phenyl)-1-methyl-1H-pyrazole-5-carboxylate] | 1.7 | – | – | 80
